Paper PMC9986249, “Comparative study on antibacterial characteristics of the multiple liver expressed antimicrobial peptides (LEAPs) in teleost fish” (Frontiers in Immunology, 2023)
No end group written: not given here.

Tests used:
[1] = system: Gram-positive and Gram-negative bacteria; conditions: cited from earlier work
Description: Mammalian LEAP-2 is a single gene, which is mainly expressed by the liver, and to a certain extent by other tissues ([18]). For example, mouse LEAP-2 is mainly expressed in the liver and small intestine ([18]). […] Therefore, LEAP-2 may have other physiological functions besides sterilization. However, unlike mammals with a single LEAP-2 ...

V. fluvialis WY91-24-3 = assay: Bacterial membrane permeability assay (PI influx, flow cytometry); format: cell-based, Vibrio fluvialis; conditions: peptide 8 μM, 10 mM NaPB pH 7.4, 37°C, 1 h; PI 9 μM; flow cytometry, 3,000 events; representative of three independent experiments
Procedure: The membrane permeability of bacteria after the treatment of peptides was assessed by flow cytometry as previously described ([33]) with minor modifications. In brief, V. fluvialis WY91-24-3 were cultured to mid-logarithmic phase, then washed twice and resuspended to 10^6 CFU/ml with 10 mM NaPB (pH 7.4). Thereafter, 40 μl of peptides diluted in NaPB was added to 160 μl of V. fluvialis to give a final concentration of 8 μM. LL37 and NaPB was used as the positive and negative control, respectively. After being incubated at 37°C for 1 h, propidium iodide (PI; Sigma-Aldrich) was added to the bacterial suspension at a final concentration of 9 μM. The PI positive bacterial cells were detected using the flow cytometer FACSVerse (BD Biosciences) at 3,000 events and the data were analyzed using the FlowJo software v10 (Tree Star).
Figure 6 Antibacterial mechanisms of LEAPs. (A–J) Membrane permeability of V. fluvialis treated with LEAPs. The bacteria were incubated with LEAPs (8 μM) at 37°C for 1 h, and a bacterial suspension without peptide was included as a control (Ctrl). Then PI (9 μM) was added and the influx of PI was detected by flow cytometry. Data are representative results of three independent experiments. (K) The data in (A–J) were analyzed statistically. The p value was calculated by one-way ANOVA with a Dunnett post hoc test. Different letters indicate significant differences (p<0.05). […]

Substance | antibacterial activity [1] | PI positive bacterial cells (V. fluvialis WY91-24-3) [%]
mature peptide 38-77 of human LEAP-2: mature peptide 38-77 of human LEAP-2 (MTPFWRGVSLRPIGASCRDDSECITRLCRKRRCSLSVAQE; ends and bridges not checked; cysteine pairing not given here; UniProt Q969E1 38-77, looked up) | different killing effects | 
LL-37: human AMP LL-37, positive control of the membrane permeability assay (LLGDFFRKSKEKIGKEFKRIVQRIKDFLRNLVPRTES; Antibacterial peptide LL-37; UniProt P49913 134-170, looked up) |  | 85.2
cleaved form 44-77: cleaved form 44-77 of human LEAP-2 (GVSLRPIGASCRDDSECITRLCRKRRCSLSVAQE; ends and bridges not checked; cysteine pairing not given here; UniProt Q969E1 44-77, looked up, fragment) | loses antibacterial activity | 
